The values below come from PubChem BioAssay (NCI).

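Tested at 5 concentrations; 48 h exposure; 96-well plates; endpoints linearly interpolated, else capped at highest concentration. TGI marks complete inhibition of growth.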

Among the test systems are A549 NSCLC; EKVX NSCLC; HL-60(TB) leukemia; HOP-92 NSCLC; MCF7 breast; MDA-N; PC-3 prostate; SNB-19 CNS; SR leukemia; SNB-75 CNS.
Experiment in all cases: NCI tumour cell line growth inhibition, 48 h

As to `O=c1[nH]nc(-c2ccccc2)n1O`, the TGI in the experiment with A549 NSCLC, with EKVX NSCLC, with HL-60(TB) leukemia, in the experiment on HOP-92 NSCLC, with MCF7 breast and with MDA-N was more than 100 µM each time. The TGI in the experiment with PC-3 prostate, with SNB-19 CNS and in the experiment with SR leukemia was more than 100 µM throughout.

`CCC1C(c2ccccc2O)c2cc3c(cc2OC1N1CCOCC1)OCO3` (stereo not given): the TGI with A549 NSCLC amounted to 29.9 µM; in the experiment on EKVX NSCLC, 25.4 µM; with HL-60(TB) leukemia, 38.8 µM; with HOP-92 NSCLC, 27.6 µM; in the experiment with MCF7 breast it was 28.2 µM; in the experiment on MDA-N, 28.6 µM. The TGI with PC-3 prostate worked out at 26 µM; in the experiment with SNB-19 CNS, 28.6 µM; in the experiment with SNB-75 CNS it was 22.7 µM; in the experiment on SR leukemia it was 30.8 µM.

Regarding `CC1(C)CC(=O)c2c(nc3c4c([nH]c(-c5ccc(Br)cc5)c24)CC(C)(C)C3)C1`, the TGI in the experiment with A549 NSCLC, in the experiment with EKVX NSCLC, in the experiment on HL-60(TB) leukemia, in the experiment on HOP-92 NSCLC, in the experiment on MCF7 breast and in the experiment with MDA-N was more than 100 µM in each case. The TGI with PC-3 prostate is more than 100 µM; with SNB-19 CNS, more than 100 µM; with SNB-75 CNS it was more than 100 µM; in the experiment on SR leukemia it was 59.1 µM.

With `COc1ccc(NC(=O)C(=O)/C=C(\O)c2ccccc2)cc1`, the TGI in the experiment on A549 NSCLC, in the experiment with EKVX NSCLC, in the experiment with HL-60(TB) leukemia, in the experiment with HOP-92 NSCLC, with MCF7 breast and in the experiment with MDA-N was more than 10 µM in each case. For the same compound, the TGI is more than 10 µM with PC-3 prostate, more than 10 µM in the experiment on SNB-75 CNS and 3.41 µM in the experiment on SR leukemia.

With `C=CCOc1ccc(C2C(C(=O)OC)C(=O)CC(O)(c3ccccc3)C2C(=O)OC)cc1OC` (stereo not given), the TGI in the experiment with A549 NSCLC was more than 100 µM; with EKVX NSCLC, more than 100 µM; in the experiment with HL-60(TB) leukemia it was more than 100 µM; in the experiment with HOP-92 NSCLC, 38.5 µM; in the experiment on MCF7 breast it was 61.3 µM; with MDA-N it was more than 100 µM. In addition, the TGI in the experiment on PC-3 prostate was more than 100 µM; in the experiment on SNB-19 CNS, more than 100 µM; in the experiment on SNB-75 CNS, 98.3 µM; in the experiment on SR leukemia, more than 100 µM.

As for `COc1cc(CNc2nc3ccccc3nc2C(=O)O)cc(OC)c1OC`, the TGI in the experiment on A549 NSCLC, in the experiment with EKVX NSCLC, with HL-60(TB) leukemia, in the experiment on HOP-92 NSCLC, with MCF7 breast and in the experiment on MDA-N was more than 100 µM throughout. In addition, the TGI in the experiment with PC-3 prostate, in the experiment on SNB-75 CNS and in the experiment with SR leukemia was more than 100 µM each time.

As for `OC(c1cccnc1Cl)c1nc2ccccc2c2ccnc(Cl)c12` (stereo not given), the TGI in the experiment on A549 NSCLC was more than 100 µM; with EKVX NSCLC it was more than 100 µM; in the experiment on HL-60(TB) leukemia it was 12.5 µM; with HOP-92 NSCLC, more than 100 µM; in the experiment with MCF7 breast, more than 100 µM; in the experiment with MDA-N it was 4.49 µM. Besides, the TGI was 69.1 µM with PC-3 prostate, more than 100 µM in the experiment with SNB-19 CNS, more than 100 µM in the experiment on SNB-75 CNS and 17.7 µM in the experiment on SR leukemia.

Take `C=C1CC[C@@H](C)[C@](C)(CCc2ccoc2)C/C=C\C=C/1C(=O)O`: the TGI with A549 NSCLC was more than 100 µM; in the experiment on EKVX NSCLC it was more than 100 µM; with HL-60(TB) leukemia it was 57 µM; in the experiment on HOP-92 NSCLC, more than 100 µM; in the experiment with MCF7 breast, more than 100 µM; in the experiment with MDA-N, 66.1 µM. In addition, the TGI is more than 100 µM with PC-3 prostate, more than 100 µM in the experiment with SNB-19 CNS, more than 100 µM with SNB-75 CNS and 59.2 µM with SR leukemia.

Regarding `COc1cc(Oc2nc3ccc(C(F)(F)F)cc3nc2-c2ccccc2)cc(OC)c1OC`, the TGI in the experiment with A549 NSCLC was 49.7 µM; in the experiment on EKVX NSCLC, more than 100 µM; with HL-60(TB) leukemia, more than 100 µM; with HOP-92 NSCLC, 45.7 µM; with MCF7 breast it was more than 100 µM; with MDA-N, more than 100 µM. Besides, the results for the TGI in the experiment with PC-3 prostate, with SNB-75 CNS and with SR leukemia were more than 100 µM, 23.5 µM and more than 100 µM, respectively.

Consider `CSc1c(C#N)c(N)n(-c2ccc(Cl)cc2)c(=O)c1C#N`, for which the TGI in the experiment with A549 NSCLC, in the experiment on EKVX NSCLC, with HL-60(TB) leukemia, with HOP-92 NSCLC, with MCF7 breast and in the experiment on MDA-N was more than 100 µM in each case. In addition, the TGI in the experiment with PC-3 prostate, with SNB-19 CNS, with SNB-75 CNS and in the experiment on SR leukemia was more than 100 µM throughout.

Turning to `C=CCC1(C)CCCN(Cc2ccccc2)C1=O` (stereo not given), the TGI in the experiment on A549 NSCLC, in the experiment on EKVX NSCLC, with HL-60(TB) leukemia, in the experiment on HOP-92 NSCLC, in the experiment on MCF7 breast and in the experiment with MDA-N was more than 10 µM in each case. The TGI in the experiment with PC-3 prostate, in the experiment with SNB-19 CNS and in the experiment with SR leukemia was more than 10 µM in each case.

On to `CC(C)/C(Cl)=N/OC(=O)Nc1ccc(Cl)c(Cl)c1`, for which the TGI with A549 NSCLC was 43.4 µM; with EKVX NSCLC, 3.95 µM; with HL-60(TB) leukemia it was 6.21 µM; in the experiment with HOP-92 NSCLC, 3.2 µM; in the experiment with MCF7 breast, 26.9 µM; with MDA-N it was 10.8 µM. For the same compound, the TGI is 33.1 µM in the experiment on PC-3 prostate, 50.4 µM in the experiment with SNB-19 CNS, 35.3 µM with SNB-75 CNS and more than 100 µM with SR leukemia.

With `CO/N=C1/c2sccc2[C@H](NC(=O)C(Cc2ccccc2)NC(=O)OC(C)(C)C)[C@@H]1O` (stereo not given in full), the TGI in the experiment with A549 NSCLC, in the experiment on EKVX NSCLC, with HL-60(TB) leukemia, in the experiment on HOP-92 NSCLC, with MCF7 breast and with MDA-N was more than 100 µM in each case. In addition, the TGI in the experiment with PC-3 prostate, in the experiment with SNB-19 CNS, with SNB-75 CNS and with SR leukemia was more than 100 µM throughout.

For the compound `CN(CCCNC(=O)c1cc(-c2ccccc2)nc2ccccc12)CCCNC(=O)c1cc(-c2ccccc2)nc2ccccc12`, the TGI in the experiment on A549 NSCLC turned out to be 15.3 µM; in the experiment on EKVX NSCLC it was 17.2 µM; in the experiment with HL-60(TB) leukemia, 4.7 µM; in the experiment with HOP-92 NSCLC, 9.85 µM; in the experiment on MCF7 breast, 3.2 µM; in the experiment on MDA-N, 3.28 µM. Moreover, the TGI was 13 µM in the experiment with PC-3 prostate, 16.7 µM in the experiment with SNB-19 CNS, 5.02 µM in the experiment with SNB-75 CNS and 12.3 µM in the experiment on SR leukemia.
